Test results as given in patent US6653442B1, “Protegrins” (priority 1993, dated 2003).
Bridge positions count the residues as written; N and C are the ends. Square brackets hold non-standard residues; d marks the D form. Ends that are not written are not given here. Peptide text beside a SMILES is read from it. Sar = CNCC(=O)O

Experiments:
[1] = system: Pseudomonas aeruginosa (Psa); experiment: Minimal inhibitory concentration, Psa; type: cell-based
Method: (§1) The minimal inhibitory concentrations (MICs) of a variety of protegrins were determined against the following organisms: methicillin resistant Staphylococcus aureus (MRSA), Pseudomonas aeruginosa (Psa), vancomycin resistant Enterococcus fecium (VREF), Candida albicans (Candid) and Escherichia coli (E. Co), and are shown in Table 9.

[2] = system: vancomycin resistant Enterococcus fecium (VREF); experiment: Minimal inhibitory concentration, VREF; type: cell-based
Method: as §1

[3] = system: methicillin resistant Staphylococcus aureus (MRSA); experiment: Minimal inhibitory concentration, MRSA; type: cell-based
Method: as §1

Candida albicans = experiment: Radial diffusion assay in 25 mM borate buffer, Candida albicans; type: cell-based
[4] = system: lipid polysaccharide (LPS) of E. coli strain 0.55B5; experiment: Limulus amebocyte lysate (LAL) test for endotoxin binding; type: biochemical
[5] = Radial diffusion assay in 25 mM borate buffer (Table 4); type: cell-based; conditions: buffer (25 mM borate buffer, pH 7.4)
Method: Contact lens solutions are typically formulated with borate buffered physiological saline and may or may not contain EDTA in addition. Protegrins in the form of the synthetic PG-3 amide and synthetic PG acid were tested generally in the assay described in Example 1 wherein all underlay gels contain 25 mM borate buffer, pH […] tryptocase soy broth ([…] TSB powder) and […]. Additions included either 100 mM NaCl, 1 mM EDTA or a combination thereof. Other test compounds used as controls were the defensin NP-1 and lysozyme. Dose response curves were determined.

L. monocytogenes = experiment: Radial diffusion assay in 25 mM borate buffer, L. monocytogenes; type: cell-based
[6] = system: N. gonorrhoeae strains FA 19 and F 62; conditions: strains FA 19 and F 62
Method: Nonpiliated transparent variants of strains FA 19 and F 62 were propagated on GCB agar plates containing glucose and iron supplements overnight at 37° C. under 3.8% V/V CO2. These strains were chosen for their adaptability to the assay.
The overnight growth is removed from the agar plate and suspended in GCB broth containing supplements and sodium bicarbonate and grown with shaking at 37° C. to mid log phase. The culture is diluted 1:100 in GCB broth to give about 10^6 CFU/ml and serial dilutions were plated onto GCB agar.
Ten μl of each dilution is added to a sterile polystyrene tube containing 90 μl of diluted bacteria and the tubes are shaken at 37° C. for 45 minutes. The contents are serially diluted 1:10 and plated on to GCB agar plates which are incubated in a CO2 incubator. CFU are counted after 24 hours and the log bactericidal activity calculated.

[7] = Autoclaving, retained antimicrobial activity; type: physicochemical; conditions: autoclaved
E. coli ML-35P = experiment: Radial diffusion assay in agarose gels, E. coli; type: cell-based; conditions: in the presence of 100 mM NaCl
Method: Aliquots (66 μl) of each fraction were dried by vacuum centrifugation and resuspended in 6.6 μl of 0.01% acetic acid. […] The units of activity in the radial diffusion assay were measured as described; 10 units correspond to a 1 mm diameter clear zone around the sample well.
(§2) The radial diffusion assay in agarose gels described in Example 1 was also used to test the activity of the purified protegrins.
The antimicrobial activity of the linearalized forms was also compared with that of the native protegrins.
This form of protegrin was tested against E. coli, L. monocytogenes, C. albicans and other microbes in the absence and presence of protease and otherwise as described for the radiodiffusion assay in agarose gels set forth in Example 1.
As described in Example 1, 0.3 mg/ml tripticase soy broth powder and 1% agarose were used as well in the underlay agar. In some cases 100 mM NaCl or RPMI plus 2.5% normal human serum (NHS) was added to the agar.

C. albicans, strain 820 = type: cell-based, Candida albicans
Method: The units of activity in the radial diffusion assay were measured as described; 10 units correspond to a 1 mm diameter clear zone around the sample well.
as §2
Similarly, using C. albicans as a target organism, underlayers were prepared with 10 mM sodium phosphate with and without 10% normal human serum.

[8] = system: E. coli ML-35 (serum sensitive); experiment: Underlay gel assay with and without normal human serum, E. coli ML-35; type: cell-based; conditions: 10 mM sodium phosphate buffer, pH 7.4
[9] = 2.5 μg peptide in 0.2 ml, LPS 0.05 endotoxin unit/ml

Compound | minimal inhibitory concentration (MIC) Psa [1] | minimal inhibitory concentration (MIC) VREF [2] | minimal inhibitory concentration (MIC) MRSA [3] | ESTIMATED MINIMAL FUNGICIDAL CONCENTRATIONS (Candida albicans; 25 mM borate buffer) [µg/mL] | ESTIMATED MINIMAL FUNGICIDAL CONCENTRATIONS (Candida albicans; borate buffer + 120 mM NaCl) [µg/mL] | ESTIMATED MINIMAL FUNGICIDAL CONCENTRATIONS (Candida albicans; borate buffer + EDTA & NaCl) [µg/mL] | gel formation in LAL test [4, 9] | ESTIMATED MINIMAL FUNGICIDAL CONCENTRATIONS [5] [µg/mL] | ESTIMATED MINIMAL BACTERICIDAL CONCENTRATIONS (L. monocytogenes; 25 mM borate buffer) [µg/mL] | ESTIMATED MINIMAL BACTERICIDAL CONCENTRATIONS (L. monocytogenes; borate buffer + 120 mM NaCl) [µg/mL] | ESTIMATED MINIMAL BACTERICIDAL CONCENTRATIONS (L. monocytogenes; borate buffer + EDTA & NaCl) [µg/mL] | log reduction in CFU per ml [6] [log] | antimicrobial activity against E. coli, L. monocytogenes and C. albicans after autoclaving [7] | further results
R-G-G-R-L-C-Y-C-R-X-R-F-C-V-C-V-G-R (X=NMeG) (RGGRLCYCR[Sar]RFCVCVGR-NH2; ends and bridges not checked) [IB-342] | 1.67 | 0.83 | 4 |  |  |  |  |  |  |  |  |  |  | 
CC(C)C[C@H](NC(=O)CNC(=O)CNC(=O)CNC(=O)[C@@H](N)CCCNC(=N)N)C(=O)N[C@H]1CSSC[C@@H](C(=O)N[C@H](C(=O)NCC(=O)N[C@@H](CCCNC(=N)N)C(N)=O)C(C)C)NC(=O)[C@H](C(C)C)NC(=O)[C@@H]2CSSC[C@H](NC(=O)[C@H](Cc3ccc(O)cc3)NC1=O)C(=O)N[C@@H](CCCNC(=N)N)C(=O)N[C@@H](CCCNC(=N)N)C(=O)N[C@@H](CCCNC(=N)N)C(=O)N[C@@H](Cc1ccccc1)C(=O)N2 [sPG-3 amide] (H-RGGGLCYCRRRFCVCVGR-NH2; disulfide 6-15, 8-13; N-terminus assumed) |  |  |  | 19.0 | 7.7 | 7.0 | no gel | 13.0 | 21.0 | 5.7 | 5.2 | > 5 | retaining full antimicrobial activity in all cases | gel formation in LAL test ([4]; 0.5 μg peptide, 0.05 E.U.): no gel; gel formation in LAL test ([4]; 1.0 μg peptide, 0.05 E.U.): no gel; gel formation in LAL test ([4]; 1.0 μg peptide, 0.10 E.U.): no gel; gel formation in LAL test ([4]; 1.0 μg peptide, 0.25 E.U.): no gel; gel formation in LAL test ([4]; 2.5 μg peptide, 0.05 E.U.): no gel; gel formation in LAL test ([4]; 2.5 μg peptide, 0.10 E.U.): no gel; gel formation in LAL test ([4]; 2.5 μg peptide, 0.25 E.U.): no gel
R-G-G-R-L-C-Y-C-R-X-R-F-C-V-C-V-G-R-OH (X=NMeG) (RGGRLCYCR[Sar]RFCVCVGR-OH; ends and bridges not checked) [IB-341] | 2 | 1 | 5.33 |  |  |  |  |  |  |  |  |  |  | 
CC[C@H](C)[C@@H]1NC(=O)[C@H](CCCNC(=N)N)NC(=O)[C@@H]2CSSC[C@@H]3NC(=O)[C@H](C)NC(=O)[C@@H](NC(=O)[C@@H](NC(=O)[C@@H](N)C(C)C)C(C)C)CSSC[C@@H](C(=O)N[C@@H](CCCNC(=N)N)C(=O)N[C@@H](CCCNC(=N)N)C(=O)O)NC(=O)[C@H](CSSC[C@H](NC(=O)[C@H](CC(C)C)NC(=O)[C@H](C)NC(=O)[C@H](CCCNC(=N)N)NC(=O)[C@H](CCCNC(=N)N)NC3=O)C(=O)N[C@@H](CC(C)C)C(=O)N3CCC[C@H]3C(=O)N[C@@H](CCCNC(=N)N)C(=O)N[C@@H](CCC(=O)O)C(=O)N[C@@H](CCCNC(=N)N)C(=O)N[C@@H](CCCNC(=N)N)C(=O)N[C@@H](C)C(=O)NCC(=O)N[C@@H](Cc3ccccc3)C(=O)N2)NC(=O)[C@H](CC(C)C)NC(=O)[C@@H]2CCCN2C(=O)[C@H](Cc2c[nH]cn2)NC(=O)[C@H]([C@@H](C)CC)NC(=O)[C@H](CCCNC(=N)N)NC(=O)CNC(=O)[C@H](CCCNC(=N)N)NC1=O [NP-1, reference compound] (H-VVCACRRALCLPRERRAGFCRIRGRIHPLCCRR-OH; disulfide 3-31, 5-20, 10-30; N-terminus and C-terminus assumed) |  |  |  | 23.0 | 60.0 | 65.0 |  | 35.0 | 20.0 | 11.0 | 3.8 |  |  | activity against E. coli in NaCl (FIG. 5b) (E. coli ML-35P): Neither NP-1 nor HNP-1 have this property; activity against Candida albicans in fetal calf serum (FIG. 5c) (C. albicans, strain 820; 90% fetal calf serum): lose their ability to inactivate C. albicans; activity against C. albicans in NaCl (FIG. 5a) (C. albicans, strain 820; in the presence of 100 mM NaCl): Neither NP-1 nor HNP-1 have this property
CC(C)C[C@H](NC(=O)CNC(=O)CNC(=O)CNC(=O)[C@@H](N)CCCNC(=N)N)C(=O)N[C@H]1CSSC[C@@H](C(=O)N[C@H](C(=O)NCC(=O)N[C@@H](CCCNC(=N)N)C(=O)O)C(C)C)NC(=O)[C@H](C(C)C)NC(=O)[C@@H]2CSSC[C@H](NC(=O)[C@H](Cc3ccc(O)cc3)NC1=O)C(=O)N[C@@H](CCCNC(=N)N)C(=O)N[C@@H](CCCNC(=N)N)C(=O)N[C@@H](CCCNC(=N)N)C(=O)N[C@@H](Cc1ccccc1)C(=O)N2 [sPG-3 acid] (H-RGGGLCYCRRRFCVCVGR-OH; disulfide 6-15, 8-13; N-terminus assumed) |  |  |  | 19.0 | 9.2 | 9.3 | trace | 15.0 | 30.0 | 7.0 | 7.0 | > 5 | retaining full antimicrobial activity in all cases | gel formation in LAL test ([4]; 5 μg peptide in 0.2 ml, LPS 0.05 endotoxin unit/ml): no gel; gel formation in LAL test ([4]; 10 μg peptide in 0.2 ml, LPS 0.05 endotoxin unit/ml): no gel
CC(C)C[C@H](NC(=O)[C@H](CCCNC(=N)N)NC(=O)CNC(=O)CNC(=O)[C@@H](N)CCCNC(=N)N)C(=O)N[C@H]1CSSC[C@@H](C(=O)N[C@H](C(=O)NCC(=O)N[C@@H](CCCNC(=N)N)C(N)=O)C(C)C)NC(=O)[C@H](C(C)C)NC(=O)[C@@H]2CSSC[C@H](NC(=O)[C@H](Cc3ccc(O)cc3)NC1=O)C(=O)N[C@@H](CCCNC(=N)N)C(=O)N[C@@H](CCCNC(=N)N)C(=O)N[C@@H](CCCNC(=N)N)C(=O)N[C@@H](Cc1ccccc1)C(=O)N2 [synthetic PG-1] |  |  |  |  |  |  |  |  |  |  |  |  |  | minimal bacteriocidal concentration ([8]; absence of serum): approximately 1.0 μg/ml; minimal bacteriocidal concentration ([8]; presence of […] normal human serum): about 0.1 μg/ml
